Measurements from the METLIN SMRT retention time set (Domingo-Almenara et al. 2019).

Test: gradient 5% acetonitrile 3 min, to 50% in 2 min, to 85% in 15 min, held 3 min, 100 µL/min
Conditions: column: Zorbax Extend-C18 2.1 x 50 mm; eluents: water / acetonitrile, 0.1% formic acid
Procedure, shortened: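 Standards, all pure, were combined into mixtures of ~100 molecules and run at 100 μL/min on a Zorbax Extend-C18 column (2.1 × 50 mm, 1.8 μm) with water and acetonitrile, each containing 0.1% formic acid. A coupled quadrupole time-of-flight mass spectrometer operated in positive and negative ionization mode. Retention time values come from computationally picked adduct peaks, each inspected manually.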

| SMILES | RP-LC retention time [s] |
| --- | --- |
| COc1cccc(Cn2cnc3c(-c4ccc(OC)c(OC)c4)csc3c2=O)c1 | 947 |
| CCOc1ccc(NC(=O)CSc2cc(N3CCN(c4ccc(OC)cc4)CC3)ncn2)cc1 | 1160 |
| Cc1cc(C)c(S(=O)(=O)N2CCN(Cc3cccc(F)c3)C3(CCOCC3)C2)c(C)c1 | 973 |
| Cc1cccc(CNC(=O)Cn2c(=O)c3nnc(C)n3c3ncccc32)c1 | 685 |
| CCN1C(=O)COc2ccc(-c3csc(NC(=O)C4CCCO4)n3)cc21 (stereo not drawn) | 838 |
| Cc1noc(-c2nc(Cc3ccc(F)cc3)no2)n1 | 953 |
| COC(=O)c1ccc(Cn2cnc3nc4c(cc3c2=O)CCCC4)cc1 | 767 |
| Cc1ccc(-c2coc(-c3ccc(NC(=O)c4ccco4)cc3)n2)c(C)c1 | 1170 |
| CCOC(=O)N1CCN(C(=O)C2CCN(c3ccc(Sc4ccc(C(C)C)cc4)nn3)CC2)CC1 | 896 |
| CC(=O)N1c2ccc(S(=O)(=O)N3CCCCC3)cc2CC1C(=O)Nc1ccc(C)c(C)c1 (stereo not drawn) | 966 |
| Cc1cc2n(n1)CCCN2C(=O)CCC(=O)NC1CCN(Cc2ccccc2)CC1 | 579 |
| N#Cc1ccc(S(=O)(=O)N2CCCOCCNC(=O)[C@@H]3CCC[C@@H]32)cc1 | 714 |
| CC(C)n1cnc(S(=O)(=O)N2CCCC(C(=O)N3CCN(c4ccccc4)CC3)C2)c1 (stereo not drawn) | 766 |
| CCOc1ccc(S(=O)(=O)N(CC(=O)N2CCNCC2)CC2CCCN2CC)cc1 (stereo not drawn) | 585 |
| COc1ccc(NC(=O)c2cn(CC3CCCO3)cc3c(=O)n(-c4ccccc4)nc2-3)cc1 (stereo not drawn) | 937 |
| CCOC(=O)c1ccc(NC(=O)Cn2cnc3ccccc32)cc1 | 594 |
| CCOC(=O)c1c(S(=O)(=O)N2CCC(C(=O)N3CCOCC3)CC2)c(C)n(C)c1C | 674 |
| CCCC(=O)N1CCCC(c2nc(CNC(=O)C3CCC3)cs2)C1 (stereo not drawn) | 694 |
| COC(=O)CCNC(=O)C1c2ccccc2C(=O)N(C2CCCC2)C12CCCCC2 (stereo not drawn) | 903 |
| CCc1ccc(C(=O)Nc2nnc(SCc3nnc(-c4ccccc4C)o3)s2)cc1 | 1080 |
| CN1C(=O)Cc2cc(C(=O)N3CCN(c4ccccc4Cl)CC3)ccc21 | 825 |
| O=C(NC1CC1)c1nc(C(=O)N2CCN(c3ccc(F)cc3)CC2)cs1 | 788 |

| SMILES | RP-LC retention time [s] |
| --- | --- |
| CC(=O)NC(C)C(=O)N1CCC(CCOc2cccnc2)CC1 (stereo not drawn) | 567 |
| COc1cccc(-n2c(N3CCCC(C(=O)NC4CC4)C3)nc3ccsc3c2=O)c1 (stereo not drawn) | 710 |
| CS(=O)(=O)N1CCCc2cc(C(=O)Nc3ccccc3Br)ccc21 | 927 |
| Cc1c(-c2ccc(Cl)cc2)noc1C1CCN(CCc2ccccc2)CC1 | 922 |
| Cc1ccc(C)c(Cn2nnc(C(=O)O)c2-c2ccncc2)c1 | 650 |
| Cc1ccc(-c2noc(-c3nnn4c3COC(c3ccc(Cl)cc3)C4)n2)cc1 (stereo not drawn) | 1310 |
| CSc1ccc(-c2nc3nc(C)cc(C)n3c2Nc2ccccc2C)cc1 | 785 |
| Cc1ccc(-c2nc(-c3ccc4c(c3)nnn4CCN3CCOCC3)no2)cc1C | 760 |
| Cn1c(=O)c2cc(C(=O)Nc3ccc(Cl)cc3)cnc2n(-c2ccccc2)c1=O | 962 |
| COC(=O)c1ccc(NC(=O)N2CC(C)Oc3ccc(C)cc32)cc1 (stereo not drawn) | 1220 |
| COc1ccc(OC)c(S(=O)(=O)N2CCCC(C(=O)NCc3ccccc3OC)C2)c1 (stereo not drawn) | 854 |
| COc1ccc(N2CCN(c3cc(SCC(=O)Nc4cc(OC)ccc4OC)ncn3)CC2)cc1 | 1030 |
| Cc1ccc(Cn2c(=O)c(N3CCN(C(=O)NCc4ccco4)CC3)nc3cccnc32)cc1 | 706 |
| O=C(CC(c1ccc(F)cc1)N1Cc2ccccc2C1=O)NCCCN1CCCC1 (stereo not drawn) | 619 |
| CCCC(=O)Nc1ccc(-n2cnc(C(=O)NC)c2)nc1 | 598 |
| CN1C(=O)c2cc(C(=O)Nc3ccc(Cl)cc3)nn2CC1(C)C(=O)NC1CCCCC1 (stereo not drawn) | 898 |
| O=C(CCCN1C(=O)c2cccc3cccc(c23)C1=O)Nc1ccon1 | 723 |
| CCn1c(=O)oc2cc(-c3noc(-c4cc(F)ccc4F)n3)ccc21 | 1100 |
| O=C(CSc1cc(-n2cccn2)ncn1)Nc1ccccc1Br | 965 |
| COc1ccc(NC(=O)c2nnc(COCC(=O)NCCc3c[nH]c4ccc(C)cc34)s2)cc1 | 892 |
| CCOCCCNC(=O)Nc1ccc(CCc2nc3ccccc3[nH]2)cc1 | 598 |
| COc1ccc(NC(=O)C2CCc3sc(C(=O)N4CCCC4)cc3C2)cc1OC (stereo not drawn) | 680 |

| SMILES | RP-LC retention time [s] |
| --- | --- |
| O=C(C1CCN(c2cc(N3CCOCC3)ncn2)CC1)N1CCN(c2ccccc2)CC1 | 640 |
| CC(C)(C)c1ccc(-c2noc(Cn3c(=O)n(-c4cccc(F)c4)c(=O)c4sccc43)n2)cc1 | 1220 |
| O=[N+]([O-])c1ccccc1S(=O)(=O)N1CCc2ccccc21 | 893 |
| COc1ccc(CN(C)Cc2cc(=O)n3ccccc3n2)cc1OC | 573 |
| O=C(CCn1nnc2cc(-c3noc(-c4ccccc4Br)n3)ccc21)N1CCCC1 | 954 |
| Cc1ccc(-c2c(C)noc2C)cc1S(=O)(=O)NCc1ccccc1 | 924 |
| O=C(CCC[C@@H]1[C@H]2CCCN3CCC[C@@H](CN1C(=O)COc1ccc(Cl)cc1)[C@@H]23)N1CCOCC1 | 626 |
| O=C(Cc1ccccc1Cl)N1CCN(c2cc(-c3ccccc3)[nH]n2)CC1 | 828 |
| Cc1nc(C(C)C)nc2c1CCC(=O)N2Cc1cccnc1 | 519 |
| Cc1ccc(S(=O)(=O)NC(=O)Nc2nccs2)cc1 | 751 |
| O=C(OCCN1CCOCC1)C1(c2ccccc2)CCCCC1 | 755 |
| O=C(Cc1ccc(F)cc1)N1CCC2(CC1)N=C(c1ccccc1)NO2 | 792 |
| CC(=O)N1C[C@@H]2CCCN3CCC[C@@H]([C@H]23)[C@H]1CCCC(=O)NCCCN(C)C1CCCCC1 | 547 |
| CC1CCCC(C)N1CCCNC(=O)C1CCCN(c2ncnc3c2nc2n3CCCCC2)C1 (stereo not drawn) | 592 |
| CCn1c(=O)c(N2CCCC(C(=O)N3CCN(c4cccc(C)c4C)CC3)C2)nc2ccccc21 (stereo not drawn) | 1350 |
| Cc1ccc(C)c(N2CCN(c3ccnc(SCC(=O)Nc4ccccc4)n3)CC2)c1 | 860 |
| CCC(=O)N(C1CCOCC1)C1CCN(S(=O)(=O)c2cc(F)ccc2C)CC1 | 864 |
| O=C(Nc1ccccc1C(F)(F)F)N1CCC(n2cnnc2C2CC2)C1 (stereo not drawn) | 640 |
| COc1cccc(-c2ccc(=O)n(Cc3nc(-c4cccc(OC)c4)no3)n2)c1 | 682 |
| CC(C)CC(=O)N1CCc2c(c(C(=O)N3CCCC(C(=O)Nc4ccccc4)C3)nn2C)C1 (stereo not drawn) | 747 |
| O=C(Nc1cccc(Cl)c1)Nc1c(-c2ccc(F)cc2)nc2ccccn12 | 730 |
| Cc1cccc(NS(=O)(=O)c2ccc3c(c2)C(=O)N(C)c2ncccc2O3)c1C | 970 |

| SMILES | RP-LC retention time [s] |
| --- | --- |
| Cc1ccc(S(=O)(=O)N2CCC3(CC2)c2nccn2CCN3C)cc1F | 654 |
| Cc1ccc(C2=NC3(CCN(C(=O)c4ccc(C#N)cc4)CC3)ON2)cc1 | 776 |
| COC(=O)C(C)Sc1nc2c(c(=O)n1-c1ccc(OC(F)(F)F)cc1)SCC2 (stereo not drawn) | 949 |
| O=C(O)c1ccccc1Nc1cccc2c1C(=O)c1cccc(Nc3ccccc3C(=O)O)c1C2=O | 1020 |
| CCCS(=O)(=O)N1CCC(C2CCN(C(=O)NC)CC2)C1 (stereo not drawn) | 659 |
| CCN1C(=O)c2cccnc2Sc2cc(NC(=O)Cc3c(F)cccc3Cl)ccc21 | 870 |
| COc1ccc(-c2ncc3c(n2)CCN(S(=O)(=O)c2ccccc2C)C3)cc1 | 1070 |
| CCc1cccc(NC(=O)N2C[C@@H](F)C[C@H]2C(=O)N2CCOCC2)c1 | 664 |
| CCOc1ccccc1CN1CCO[C@@H](COC)[C@@H]1c1ccccc1 | 699 |
| O=C(NCCCOc1cccc2cccnc12)c1cc(=O)c2ccccc2o1 | 648 |
| O=C(Nc1ccc(F)cc1Cl)c1cccn1Cc1noc(C2CC2)n1 | 924 |
| O=C1NC(=O)C2(CCc3ccccc32)N1 (stereo not drawn) | 670 |
| COc1cc(OC)cc(-c2nc(-c3ccc4c(c3)oc(=O)n4C(C)C)no2)c1 | 1080 |
| Cc1ccc(OCc2nc(-c3ccc(N4CCSCC4)nc3)no2)cc1 | 1180 |
| Cc1ccc(NC(=O)Cn2c(-c3cnccn3)nc(C)c(C)c2=O)cc1Cl | 842 |
| COc1ccc(S(=O)(=O)NC2CCN(C(=O)c3ccnn3C)CC2)cc1 | 658 |
| CCNC(=O)C1CCCN(c2nc3ncn(CC(=O)Nc4cc(C)ccc4C)c(=O)c3s2)C1 (stereo not drawn) | 673 |
| Cc1ccc(-n2nnnc2CNC(=O)c2cc(Br)ccc2Cl)cc1 | 835 |
| CCc1nc2cc3c(cc2n1CC(=O)Nc1ccccc1OC)OCCO3 | 627 |
| Cc1nc(-c2cc(S(=O)(=O)N3CCC(C(=O)NC4CCCCCC4)CC3)c(C)s2)no1 | 707 |
| O=C(NCc1ccc(F)cc1)c1cn(-c2ccc(NC(=O)C3CC3)cn2)cn1 | 748 |
| Cc1nnc2ccc(-c3noc(-c4ccccc4F)n3)cn12 | 770 |
